Data: patent US10947197B2, “Synthesis of the radiolabeled prostate-specific membrane antigen (PSMA) inhibitor [18F]DCFPyL” (The Johns Hopkins University, priority 2016, dated 2021)

How the values were obtained:
Type in all cases: physicochemical
[1] = Retesting at radiotracer expiry: radiochemical purity (HPLC) after storage under ambient conditions; settings: for Expiry radiochemical purity, %: ambient storage
Description: Using the same HPLC system described for the radiochemical identity test, an appropriate volume (50 μL) of [^18F]DCFPyL was injected at a quantity injected that avoids uncorrected dead-time loss (for main peak) in the radioactive detection system. The percent radiochemical purity of [^18F]DCFPyL was determined by dividing the radioactivity associated with the [^18F]DCFPyL peak by total activity assayed in the chromatogram multiplied by 100. The product met this acceptance specification if the radiochemical purity was greater than or equal to 95%. A sample QC chromatogram is shown in FIG. 7 (DCFPyL−RT=7.6 min., k′=8.7).

[2] = Retesting at radiotracer expiry: visual inspection (appearance); settings: n = 3, specification: clear colorless solution, no visible particulate matter
From the text: Using remote handling equipment and appropriate radiation shielding (leaded glass), the vial containing the [^18F]DCFPyL product was visually inspected under bright light. The product met this acceptance specification if it was clear and colorless with no evidence of foreign matter.

[3] = Retesting at radiotracer expiry: pH by indicator paper; settings: specification 4.5-8.5; for pH, expiry: average n = 3, 360 min after EOS
From the text: A drop of the [^18F]DCFPyL final product matrix was applied to pH indicator paper (ColorPhast-Indicator strip—pH 2-9; sensitivity of 0.3 to 0.5 units, EMD Chemicals Inc., Gibbstown, N.J.). The strip color was matched to an indicator chart. The product met this acceptance specification if the pH was between 4.5 and 8.5.

[4] = large-scale RFM batch, 4.5 GBq/mL (122 mCi/mL), added sodium ascorbate, 99.7% at EOS
[5] = RFM synthesis (head prints REM)

- Expiry radiochemical purity, % ([1]; ELIXYS synthesis, average n = 3, expiry 360 min after EOS): 100%
- Expiry radiochemical purity, % ([1]; RFM synthesis (head prints REM), average n = 3, expiry 360 min after EOS): 100%
- QC acceptance specifications at the 6-hour expiry ([1]; highest product yield validation run, 1.6 GBq/mL (44 mCi/mL)): meet all QC acceptance specifications
- radiochemical purity 3 hours post EOS [1, 4]: 98.8%
- radiochemical purity 4 hours post EOS [1, 4]: 98.5%
- radiochemical purity 6 hours post EOS [1, 4]: 98.2%
- radiochemical purity at the 6-hour expiry ([1]; large-scale RFM batch, 5.7 GBq/mL (153 mCi/mL), no sodium ascorbate, 97.6% at EOS): 51.1%
- Expiry radiochemical purity, % ([1]; original first-in-human synthesis, average n = 3, expiry 240 min after EOS): 100%
- Appearance, 360 min after EOS ([2]; ELIXYS synthesis): Conforms
- Appearance, 360 min after EOS [2, 5]: Conforms
- Appearance, 240 min after EOS ([2]; original synthesis): Conforms
- pH, expiry ([3]; ELIXYS synthesis): 5
- pH, expiry [3, 5]: 5
- pH, initial ([3]; original synthesis, average n = 3, second row headed pH, initial, beside pH, expiry): 5
Compound: O=C(O)CC[C@H](NC(=O)N[C@@H](CCCCNC(=O)c1ccc([18F])nc1)C(=O)O)C(=O)O [[^18F]DCFPyL, 2-(3-{1-carboxy-5-[(6-[^18F]fluoro-pyridine-3-carbonyl)-amino]-pentyl}-ureido)-pentanedioic acid]
